The values below come from patent publication US20150011492A1, “ANTI-RESTENOSIS COMPOSITIONS AND METHODS” (WISCONSIN ALUMNI RESEARCH FOUNDATION, priority 2013, published 2015).

The test system of series [1] is balloon-injured rat carotid arteries. Put plainly: Rat carotid balloon angioplasty model, perivascular drug delivery in pluronic gel. The class given is in vivo, Male Sprague-Dawley rats. Here is the method:
Balloon injury of the left common carotid artery was performed in Male Sprague-Dawley rats (300-350 g) according to the method described previously (Kundi et al., Cardiovasc Res. 84(2):326-35 (2009). Briefly, after induction of anesthesia with isoflurane, a 2F balloon catheter was inserted through the left external carotid artery into the common carotid and insufflated three times at 2 atm of pressure. The external carotid artery was then ligated, and blood flow was resumed through the common and internal carotid arteries. For perivascular drug delivery, resveratrol (500 μg) or halofuginone (30 μg) or DMSO dissolved in 200 μL of 25% F127 pluronic gel (Sigma-Aldrich) in PBS was evenly applied, immediately after reestablishment of flow, around the injured segment of the carotid artery (5 animals in each group). The pluronic gel is a biodegradable polymer that is soluble in water at 4° C. but becomes a gel when in contact with tissues at 37° C. (Ji et al., Circ. Res. 100:1579-88 (2007)). Rats were euthanized 14 days after injury, and the common carotid arteries were collected and fixed in 4% paraformaldehyde overnight for embedding in paraffin.
For morphometric analysis of intimal hyperplasia, ten evenly spaced sections through each injured carotid artery were stained using routine hematoxylin and eosin (H&E) and images were collected with light microscopy. Intimal and medial areas and circumference were determined by measuring the internal elastic lamina (IEE) and external elastic lamina (EEL) for each section using the ImageJ software (National Institutes of Health). Kundi et al., Cardiovasc. Res. 84:326-35 (2009); Kingston et al., Circulation 108:2819-25 (2003). The difference in intimal hyperplasia between the compound treatment group and the control group was analyzed with the Student t-test (P<0.05).
To mark endothelial cells, immunohistochemistry using an anti-CD31 antibody was performed on rat carotid sections based on our published methods. Suwanabol et al., Am J Physiol Heart Circ Physiol. 302:H2211-19 (2012); Kundi et al., Cardiovasc. Res. 84:326-35 (2009); Si et al., Arterioscler. Thromb. Vasc. Biol. 32:943-54 (2012). Briefly, the carotid sections were incubated with the anti-CD31 antibody (Santa Cruz Biotechnology) overnight at 4° C., followed by rhodamine-conjugated secondary antibody (DAKO) for 60 minutes at room temperature. Antibody controls included species-matched IgG. Images were taken with a fluorescence microscope.
Balloon angioplasty was performed in the left common carotid artery of male Sprague-Dawley rats. Immediately after resuming the blood flow, idarubicin (110 μg) or DMSO control dissolved in 300 μL of 25% F127 pluronic gel was applied around the injured artery. At 14 days after injury, arteries were collected and cross-sections were prepared and H&E stained. Intimal and medial areas, and circumference were determined by measuring the internal elastic lamina (IEE) and external elastic lamina (EEL) for each section using the ImageJ software. The difference in intimal hyperplasia (ratio of intima to media) between the idarubicin treatment group and the control group was analyzed with the Student t-test (P<0.05). Immunostaining of CD31, an endothelial cell marker, was performed on the sections to assess re-endothelialization.
Using the carotid artery sections collected on day 14 following angioplasty, we performed immunostaining for CD31 (FIGS. 10A-C), a commonly used marker for assessment of the endothelium, in a rat carotid injury model at 14 days. Briefly, a goat anti-CD31 primary antibody (R&D Sytems, 1:150) was incubated with the sections for 1 hour followed by an incubation with a biotinylated rabbit-anti-goat secondary antibody for 30 minutes. Immunostaining of CD31 was then visualized by using streptavidin-HRP and DAB.

For series [2], the system named is HuAoSMCs. Put plainly: Dose response proliferation assay, HuAoSMCs (96-well plate). In kind it is cell-based, human. As for the experimental part:
FIGS. 5A-B present comparative dose responses of HuAoSMCs and HuAoECs for idarubicin (A) and resveratol (B).
Cryo-protected frozen HuAoSMCs and HuAoECs (Lonza, passage 3) were thawed and cultured in their respective media that are optimized for cell growth by the manufacturer. HuAoSMCs (“SMCs”) were grown in the SmGM-2 medium containing 5% FBS, and HuAoECs (“ECs”) in the EGM-2 medium containing 2% FBS in a humidified incubator at 37° C. with 5% CO2.

Series [3] concerns primary human aortic endothelial cells (HuAoECs). Kind of series: Counter-screen / dose response proliferation assay, HuAoECs. On the technique in general: A counterscreen serves to expose hits that act by an unwanted route or on another target.
The test system of series [4] is balloon-injured rat carotid arteries. Kind of series: Rat carotid balloon angioplasty model, perivascular drug delivery in pluronic gel. In kind it is in vivo, Male Sprague-Dawley rats. The source holds these as a separate data set.
Series [5] deals with human SMCs. Put plainly: CellTiter-Glo luminescent cell viability assay, SMCs. The class given is cell-based. Conditions: 200 nM. As for the experimental part: Freshly collected HuAoSMCs (passage 5) were counted ([…]) by Cellometer AutoT4 (Nexelon Bioscience), and dispensed using Microflo Select (BioTek) to a final density of 2700 cells/[…]/well in the SmGM-2 medium in a 96-well plate. After a 24 hour incubation to allow cell attachment, […] of DMSO (vehicle) or […] of resveratrol (a known SMC growth inhibitor) stock in DMSO was robotically transferred using Biomek FX (Beckman) from a resveratrol stock plate into cell culture (final […] resveratrol). DMSO and resveratrol were added into alternate columns of wells (8 wells per column). Cell growth/proliferation was monitored by reading fluorescence from the AlamarBlue® cell viability reagent (Invitrogen). See Antczak et al., J. Biomol. […] After incubation with resveratrol for 72 hours, AlamarBlue reagent was added using Matrix Hydra (Thermo-Fisher) and incubated with cells for another 24 hours, and fluorescence was then determined using a Safir2 plate reader (Tecan, excitation/fluorescence: 530 nm/590 nm, bandwidth: 15 nm). The data from 40 wells of vehicle and 40 wells of resveratrol treatments were analyzed for assessment of well-well consistency in the assay. […] It was determined that reading Alamar Blue fluorescence 24 hours after incubation reduced variance compared to reading after shorter incubation (e.g., 4 hours). […]
A general note: Cellular ATP, detected with luciferase, serves as a proxy for viable cell number.

Series [6] relates to human ECs. Put plainly: CellTiter-Glo luminescent cell viability assay, ECs. The class given is cell-based. Conditions: 200 nM. The text has this:
For human SMCs, cell densities ranging from about 1,000 cells per well to about 5,000 cells per well were aliquoted into 96-well plates and cultured in the SmGM-2 medium (Lonza CC-3182) with 5% serum.
This robust well-to-well consistency achieved by our experimental system is better reflected by a Z′ value of 0.63. […] See, e.g., Tomasini-Johansson et al., J. Intl. Soc. Matrix Biol. (2012); Zhang et al., J. Biomol. Screening 4:67-73 (1999); Patel et al., PloS One 7:e36594 (2012). In parallel experiments, a CellTiter-Glo® luminescent cell viability assay (Cat. #7570, Promega), which quantifies ATP levels in cell lysates, was evaluated as an additional and more sensitive orthologous assay for cell number. Sachsenmeier et al., PLoS One 17:993-8 (2012). Using the CellTiter-Glo® assay, Rapamycin which is used in drug-eluting stents at 200 nM produced >50% inhibition of both human SMCs and ECs with Z′ values of 0.56 to 0.75 respectively (FIG. 2). In addition, CellTiter-Glo® assays using resveratrol for both SMCs and ECs also produced high Z′ values (>0.7) (data not shown). Curve fitting was performed with the Prism software (GraphPad).

The test system of series [7] is primary human aortic smooth muscle cells (HuAoSMCs). Kind of series: AlamarBlue cell viability assay of HuAoSMC proliferation (automated HTS). In kind it is cell-based. The text has this:
Alamar Blue was purchased from Invitrogen (Carlsbad, Calif.). Cell Titer Glo was from Promega (Madison, Wis.). Primary human aortic smooth muscle cells (HuAoSMCs) and primary human aortic endothelial cells (HuAoECs) at passage 3 were purchased from Lonza; their respective optimal culture media (SmGM-2 and EGM-2) were from the same commercial source. Cells were used at passage 5 after expansion. Trypsin/EDTA solution was from Clonetics (Walkersville, Md.); and DPBS was from Gibco (Invitrogen, Carlsbad, Calif.). Microtiter tissue 96-well culture plates with transparent flat-bottoms and black-walled sides were from Costar (Corning, N.Y.). Resveratrol and idarubicin were products of Sigma-Aldrich (St. Louis, Mo.). […]
Freshly collected HuAoSMCs (passage 5) were counted ([…]) by Cellometer AutoT4 (Nexelon Bioscience), and dispensed using Microflo Select (BioTek) to a final density of 2700 cells/[…]/well in the SmGM-2 medium in a 96-well plate. […] Cell growth/proliferation was monitored by reading fluorescence from the AlamarBlue® cell viability reagent (Invitrogen). […] After incubation with resveratrol for 72 hours, AlamarBlue reagent was added using Matrix Hydra (Thermo-Fisher) and incubated with cells for another 24 hours, and fluorescence was then determined using a Safir2 plate reader (Tecan, excitation/fluorescence: 530 nm/590 nm, bandwidth: 15 nm). […]

[8] abbreviates: Example 5, local perivascular application, day 14 following angioplasty, 5 rats.
Setting [9] is: idarubicin applied locally around injured artery, day 14.
The mark [10] stands for this setting: relative to controls not contacted to idarubicin formulation.
Setting [11] is: medium dose 0.5 mg/mL in pluronic gel.
[12] abbreviates: halofuginone 30 μg in 200 μL pluronic gel, 14 days.

Entries after “also recorded” stand apart in the source; their conditions may differ. Where only a bound is given, the exact number is not on record here.

As for `CC(=O)[C@]1(O)Cc2c(O)c3c(c(O)c2[C@@H](O[C@H]2C[C@H](N)[C@H](O)[C@H](C)O2)C1)C(=O)c1ccccc1C3=O` [idarubicin, (7S,9S)-9-Acetyl-7-[(3-amino-2,3,6-trideoxy-α-L-lyxo-hexapyranosyl)oxy]-7,8,9,10-tetrahydro-6,9,11-trihydroxy-5,12-naphtacenedione], the “increase of lumen size” value in series [1] (setting [8]) was determined as 45%. In addition, the “reduction of intimal hyperplasia” value stood at 80% in series [1] (setting [8]) and 70% in series [1] (local application, dose not stated at the place (Example 3)). Moreover, in series [1] (setting [9]), the “effect on intimal hyperplasia (intima/media), in words” value is “effectively reduced; also recorded: inhibitory effect; also recorded: inhibits intimal hyperplasia in a dose-dependent manner”. The “effect on re-endothelialization (CD31 staining), in words” value in series [1] (setting [9]) was “not affected; also recorded: absence of idarubicin's effect; also recorded: preserves and promotes re-endothelialization; also recorded: no substantial impairment; also recorded: no significant effect”. In series [2] (approximately 50 nM to 1000 nM), the “SMC versus EC proliferation, dose response (in words)” value is given as “impedes SMC proliferation to a significantly greater extent than ECs; also recorded: differentially inhibited SMC proliferation with a lesser effect on ECs”. Moreover, in series [2] (setting [10]), the “inhibition of smooth muscle cell proliferation” value was “up to 80%”. Moreover, the “SMC versus EC preference in counter-screen of EC proliferation, in words” value in series [3] (counter-screen) was “preferentially inhibits SMCs over ECs”. Also, the “inhibition of endothelial cell proliferation” value in series [3] (setting [10]) is “less than 40%”. The “cytotoxicity in surrounding tissues” value in series [4] (highest dose 1 mg/mL in pluronic gel) is on record as “slight cytotoxicity”; in series [4] (lowest dose 0.2 mg/mL in pluronic gel), “without showing cytotoxicity”; in series [4] (setting [11]), “without showing cytotoxicity”. The “inhibition of intimal hyperplasia” value in series [4] (lowest dose 0.2 mg/mL in pluronic gel (data not shown)) and in series [4] (setting [11]) was above 70% throughout.
The term inhibition denotes how much of the control response was suppressed. Low values mean a response near the control, high ones a response far below the control. In the case of `CO[C@H]1C[C@@H]2CC[C@@H](C)[C@@](O)(O2)C(=O)C(=O)N2CCCC[C@H]2C(=O)O[C@H]([C@H](C)C[C@@H]2CC[C@@H](O)[C@H](OC)C2)CC(=O)[C@H](C)/C=C(\C)[C@@H](O)[C@@H](OC)C(=O)[C@H](C)C[C@H](C)/C=C/C=C/C=C/1C` [Rapamycin], the inhibition at 0.2 µM in series [5] and in series [6] was above 50% throughout.
With `Oc1ccc(C=Cc2cc(O)cc(O)c2)cc1` [resveratrol], the “inhibition of the intima/media ratio” value in series [1] (resveratrol 500 μg in 200 μL pluronic gel, perivascular, 14 days after injury) is reported as 84%. Also, the “SMC growth in cell assays, in words” value in series [7] is “inhibit SMC growth”.
On to `O=C(CC1NCCCC1O)Cn1cnc2cc(Br)c(Cl)cc2c1=O` (stereo not shown) [halofuginone], for which, in series [1] (setting [12]), the “effect on intimal hyperplasia, in words” value is recorded as “inhibits intimal hyperplasia” and the “effect on re-endothelialization (CD31 staining), in words” value is recorded as “not re-endothelialization; also recorded: not affected”. For the same compound, the “reduction of intimal hyperplasia (intima/media ratio)” value in series [1] (halofuginone 30 μg in 200 μL pluronic gel, periadventitial, 14 days after injury) came out at 74%. The “SMC growth in cell assays, in words” value in series [7] is on record as “inhibit SMC growth”.
